Measurements taken from ChEMBL document CHEMBL1806468, “A facile synthesis of 1,5-disubstituted-2-aminoimidazoles: antibiotic activity of a first generation library” (2011).

System: Staphylococcus aureus
Assay: Antimicrobial activity against methicillin-susceptible Staphylococcus aureus ATCC 29213 after 16 hrs by broth microdilution method
Type: functional
Conditions: ATCC 29213, 16 h

Compound	MIC
CCCCCCc1cnc(N)n1CCCc1ccccc1.Cl	8 µg/mL
Cl.Nc1ncc(-c2ccccc2)n1Cc1ccccc1	8 µg/mL
Cl.Nc1ncc(Cc2ccccc2)n1Cc1ccccc1	> 128 µg/mL
CCCCCn1c(CC(C)C)cnc1N.Cl	> 128 µg/mL
Cl.Nc1ncc(CCCCNC(=O)OCc2ccccc2)n1CCCc1ccccc1	16 µg/mL
CC(C)Cc1cnc(N)n1Cc1ccccc1.Cl	128 µg/mL
Cl.Nc1ncc(Cc2ccccc2)n1CCCc1ccccc1	32 µg/mL
CC(C)Cc1cnc(N)n1CCCc1ccccc1.Cl	64 µg/mL
CCCCCCc1cnc(N)n1Cc1ccccc1.Cl	16 µg/mL
CCCCCCCCCCCCn1c(CCCCCC)cnc1N.Cl	2 µg/mL
CCCCCCCCn1c(CC(C)C)cnc1N.Cl	16 µg/mL

System: Acinetobacter baumannii
Assay: Antimicrobial activity against Acinetobacter baumannii ATCC 19606 after 16 hrs by broth microdilution method
Type: functional
Conditions: ATCC 19606 = CIP 70.34 = JCM 6841, 16 h

Compound	MIC
CCCCCCc1cnc(N)n1CCCc1ccccc1.Cl	16 µg/mL
Cl.Nc1ncc(-c2ccccc2)n1Cc1ccccc1	128 µg/mL
Cl.Nc1ncc(Cc2ccccc2)n1Cc1ccccc1	> 128 µg/mL
CCCCCn1c(CC(C)C)cnc1N.Cl	64 µg/mL
Cl.Nc1ncc(CCCCNC(=O)OCc2ccccc2)n1CCCc1ccccc1	32 µg/mL
CC(C)Cc1cnc(N)n1Cc1ccccc1.Cl	128 µg/mL
Cl.Nc1ncc(Cc2ccccc2)n1CCCc1ccccc1	32 µg/mL
CC(C)Cc1cnc(N)n1CCCc1ccccc1.Cl	32 µg/mL
CCCCCCc1cnc(N)n1Cc1ccccc1.Cl	16 µg/mL
CCCCCCCCCCCCn1c(CCCCCC)cnc1N.Cl	64 µg/mL
CCCCCCCCn1c(CC(C)C)cnc1N.Cl	16 µg/mL

System: Escherichia coli
Assay: Inhibition of Escherichia coli ATCC 35695 biofilm formation after 24 hrs by crystal violet reporter assay; note: test concentration or dose not given here
Type: functional
Conditions: not given

Compound	inhibition (INH)
CCCCCCc1cnc(N)n1CCCc1ccccc1.Cl	94%
Cl.Nc1ncc(-c2ccccc2)n1Cc1ccccc1	89%
Cl.Nc1ncc(Cc2ccccc2)n1CCCc1ccccc1	97%
CC(C)Cc1cnc(N)n1CCCc1ccccc1.Cl	92%
CCCCCCCCn1c(CC(C)C)cnc1N.Cl	88%

System: Klebsiella pneumoniae
Assay: Antimicrobial activity against carbapenem-resistant Klebsiella pneumoniae BAA-2146 expressing […] gene after 16 hrs by broth microdilution method
Type: functional
Conditions: BAA-2146, 16 h

Compound	MIC
CCCCCCc1cnc(N)n1CCCc1ccccc1.Cl	64 µg/mL
Cl.Nc1ncc(-c2ccccc2)n1Cc1ccccc1	128 µg/mL
Cl.Nc1ncc(Cc2ccccc2)n1Cc1ccccc1	> 128 µg/mL
CCCCCn1c(CC(C)C)cnc1N.Cl	128 µg/mL
Cl.Nc1ncc(CCCCNC(=O)OCc2ccccc2)n1CCCc1ccccc1	128 µg/mL
CC(C)Cc1cnc(N)n1Cc1ccccc1.Cl	128 µg/mL
Cl.Nc1ncc(Cc2ccccc2)n1CCCc1ccccc1	128 µg/mL
CC(C)Cc1cnc(N)n1CCCc1ccccc1.Cl	128 µg/mL
CCCCCCc1cnc(N)n1Cc1ccccc1.Cl	64 µg/mL
CCCCCCCCCCCCn1c(CCCCCC)cnc1N.Cl	> 128 µg/mL
CCCCCCCCn1c(CC(C)C)cnc1N.Cl	64 µg/mL

System: Acinetobacter baumannii
Assay: Inhibition of Acinetobacter baumannii ATCC 19606 biofilm formation after 24 hrs by crystal violet reporter assay; note: test concentration or dose not given here
Type: functional, ATCC 19606 = CIP 70.34 = JCM 6841
Conditions: not given

Compound	inhibition (INH)
CCCCCCc1cnc(N)n1CCCc1ccccc1.Cl	96%
Cl.Nc1ncc(-c2ccccc2)n1Cc1ccccc1	96%
Cl.Nc1ncc(Cc2ccccc2)n1CCCc1ccccc1	96%
CC(C)Cc1cnc(N)n1CCCc1ccccc1.Cl	96%
CCCCCCCCn1c(CC(C)C)cnc1N.Cl	97%

System: Acinetobacter baumannii
Assay: Antimicrobial activity against multidrug-resistant Acinetobacter baumannii BAA-1605 after 16 hrs by broth microdilution method
Type: functional
Conditions: BAA-1605, 16 h

Compound	MIC
CCCCCCc1cnc(N)n1CCCc1ccccc1.Cl	32 µg/mL
Cl.Nc1ncc(-c2ccccc2)n1Cc1ccccc1	16 µg/mL
Cl.Nc1ncc(Cc2ccccc2)n1Cc1ccccc1	> 128 µg/mL
CCCCCn1c(CC(C)C)cnc1N.Cl	64 µg/mL
Cl.Nc1ncc(CCCCNC(=O)OCc2ccccc2)n1CCCc1ccccc1	32 µg/mL
CC(C)Cc1cnc(N)n1Cc1ccccc1.Cl	128 µg/mL
Cl.Nc1ncc(Cc2ccccc2)n1CCCc1ccccc1	32 µg/mL
CC(C)Cc1cnc(N)n1CCCc1ccccc1.Cl	32 µg/mL
CCCCCCc1cnc(N)n1Cc1ccccc1.Cl	16 µg/mL
CCCCCCCCCCCCn1c(CCCCCC)cnc1N.Cl	> 128 µg/mL
CCCCCCCCn1c(CC(C)C)cnc1N.Cl	16 µg/mL

System: Staphylococcus epidermidis
Assay: Antimicrobial activity against methicillin-resistant Staphylococcus epidermidis ATCC 51625 after 16 hrs by broth microdilution method
Type: functional
Conditions: ATCC 51625, 16 h

Compound	MIC
CCCCCCc1cnc(N)n1CCCc1ccccc1.Cl	16 µg/mL
Cl.Nc1ncc(-c2ccccc2)n1Cc1ccccc1	8 µg/mL
Cl.Nc1ncc(Cc2ccccc2)n1Cc1ccccc1	128 µg/mL
CCCCCn1c(CC(C)C)cnc1N.Cl	128 µg/mL
Cl.Nc1ncc(CCCCNC(=O)OCc2ccccc2)n1CCCc1ccccc1	16 µg/mL
CC(C)Cc1cnc(N)n1Cc1ccccc1.Cl	128 µg/mL
Cl.Nc1ncc(Cc2ccccc2)n1CCCc1ccccc1	16 µg/mL
CC(C)Cc1cnc(N)n1CCCc1ccccc1.Cl	32 µg/mL
CCCCCCc1cnc(N)n1Cc1ccccc1.Cl	16 µg/mL
CCCCCCCCCCCCn1c(CCCCCC)cnc1N.Cl	1 µg/mL
CCCCCCCCn1c(CC(C)C)cnc1N.Cl	8 µg/mL

System: Staphylococcus aureus
Assay: Inhibition of Staphylococcus aureus ATCC 29213 biofilm formation after 24 hrs by crystal violet reporter assay; note: test concentration or dose not given here
Type: functional
Conditions: not given

Compound	inhibition (INH)
CCCCCCc1cnc(N)n1CCCc1ccccc1.Cl	98%
Cl.Nc1ncc(-c2ccccc2)n1Cc1ccccc1	93%
Cl.Nc1ncc(Cc2ccccc2)n1CCCc1ccccc1	98%
CC(C)Cc1cnc(N)n1CCCc1ccccc1.Cl	87%
CCCCCCCCn1c(CC(C)C)cnc1N.Cl	93%

System: Staphylococcus aureus
Assay: Inhibition of Staphylococcus aureus BAA-44 biofilm formation after 24 hrs by crystal violet reporter assay; note: test concentration or dose not given here
Type: functional
Conditions: not given

Compound	inhibition (INH)
CCCCCCc1cnc(N)n1CCCc1ccccc1.Cl	91%
Cl.Nc1ncc(-c2ccccc2)n1Cc1ccccc1	95%
Cl.Nc1ncc(Cc2ccccc2)n1CCCc1ccccc1	90%
CC(C)Cc1cnc(N)n1CCCc1ccccc1.Cl	96%
CCCCCCCCn1c(CC(C)C)cnc1N.Cl	97%

System: Staphylococcus epidermidis
Assay: Antimicrobial activity against Staphylococcus epidermidis ATCC 29886 after 16 hrs by broth microdilution method
Type: functional
Conditions: ATCC 29886, 16 h

Compound	MIC
CCCCCCc1cnc(N)n1CCCc1ccccc1.Cl	4 µg/mL
Cl.Nc1ncc(-c2ccccc2)n1Cc1ccccc1	2 µg/mL
Cl.Nc1ncc(Cc2ccccc2)n1Cc1ccccc1	128 µg/mL
CCCCCn1c(CC(C)C)cnc1N.Cl	32 µg/mL
Cl.Nc1ncc(CCCCNC(=O)OCc2ccccc2)n1CCCc1ccccc1	16 µg/mL
CC(C)Cc1cnc(N)n1Cc1ccccc1.Cl	16 µg/mL
Cl.Nc1ncc(Cc2ccccc2)n1CCCc1ccccc1	16 µg/mL
CC(C)Cc1cnc(N)n1CCCc1ccccc1.Cl	4 µg/mL
CCCCCCc1cnc(N)n1Cc1ccccc1.Cl	16 µg/mL
CCCCCCCCCCCCn1c(CCCCCC)cnc1N.Cl	0.5 µg/mL
CCCCCCCCn1c(CC(C)C)cnc1N.Cl	2 µg/mL

System: Staphylococcus aureus
Assay: Antimicrobial activity against methicillin-resistant Staphylococcus aureus BAA-44 after 16 hrs by broth microdilution method
Type: functional
Conditions: BAA-44, 16 h

Compound	MIC
CCCCCCc1cnc(N)n1CCCc1ccccc1.Cl	8 µg/mL
Cl.Nc1ncc(-c2ccccc2)n1Cc1ccccc1	4 µg/mL
Cl.Nc1ncc(Cc2ccccc2)n1Cc1ccccc1	> 128 µg/mL
CCCCCn1c(CC(C)C)cnc1N.Cl	128 µg/mL
Cl.Nc1ncc(CCCCNC(=O)OCc2ccccc2)n1CCCc1ccccc1	16 µg/mL
CC(C)Cc1cnc(N)n1Cc1ccccc1.Cl	128 µg/mL
Cl.Nc1ncc(Cc2ccccc2)n1CCCc1ccccc1	32 µg/mL
CC(C)Cc1cnc(N)n1CCCc1ccccc1.Cl	32 µg/mL
CCCCCCc1cnc(N)n1Cc1ccccc1.Cl	32 µg/mL
CCCCCCCCCCCCn1c(CCCCCC)cnc1N.Cl	2 µg/mL
CCCCCCCCn1c(CC(C)C)cnc1N.Cl	8 µg/mL

System: Escherichia coli
Assay: Antimicrobial activity against Escherichia coli ATCC 35695 after 16 hrs by broth microdilution method
Type: functional
Conditions: ATCC 35695, 16 h

Compound	MIC
CCCCCCc1cnc(N)n1CCCc1ccccc1.Cl	8 µg/mL
Cl.Nc1ncc(-c2ccccc2)n1Cc1ccccc1	8 µg/mL
Cl.Nc1ncc(Cc2ccccc2)n1Cc1ccccc1	128 µg/mL
CCCCCn1c(CC(C)C)cnc1N.Cl	64 µg/mL
Cl.Nc1ncc(CCCCNC(=O)OCc2ccccc2)n1CCCc1ccccc1	64 µg/mL
CC(C)Cc1cnc(N)n1Cc1ccccc1.Cl	128 µg/mL
Cl.Nc1ncc(Cc2ccccc2)n1CCCc1ccccc1	32 µg/mL
CC(C)Cc1cnc(N)n1CCCc1ccccc1.Cl	16 µg/mL
CCCCCCc1cnc(N)n1Cc1ccccc1.Cl	32 µg/mL
CCCCCCCCCCCCn1c(CCCCCC)cnc1N.Cl	2 µg/mL
CCCCCCCCn1c(CC(C)C)cnc1N.Cl	2 µg/mL

System: Acinetobacter baumannii
Assay: Inhibition of Acinetobacter baumannii BAA-1605 biofilm formation after 24 hrs by crystal violet reporter assay; note: test concentration or dose not given here
Type: functional
Conditions: not given

Compound	inhibition (INH)
CCCCCCc1cnc(N)n1CCCc1ccccc1.Cl	98%
Cl.Nc1ncc(-c2ccccc2)n1Cc1ccccc1	97%
Cl.Nc1ncc(Cc2ccccc2)n1CCCc1ccccc1	94%
CC(C)Cc1cnc(N)n1CCCc1ccccc1.Cl	97%
CCCCCCCCn1c(CC(C)C)cnc1N.Cl	96%
